Experiments:
Experiment in all cases: relative viability (nuclei count vs DMSO), 5 days (fraction); higher = more cells survive
[1] = compound: C1/C(=C\C2=CC=CS2)/C(=O)/C(=C/C3=CC=CS3)/C1 + CS(=O)(=O)CCNCc1ccc(-c2ccc3ncnc(Nc4ccc(OCc5cccc(F)c5)c(Cl)c4)c3c2)o1 [Lapatinib] (partner 2 µM)
Summary of the method: (§1)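 Lung cancer cell lines were pin-tool dosed in 1536-well plates on the day after seeding, with either a lone drug or a fixed anchor-drug dose plus five library-drug doses (not always all listed) in √10 steps. Nuclei were counted on 4× images after 5 days. Relative viability is the ratio of treated-well to vehicle-well nuclei counts, with each value a median of duplicate plates.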

[2] = compound: C[C@]12O[C@H](C[C@]1(O)CO)n1c3ccccc3c3c4c(c5c6ccccc6n2c5c31)CNC4=O [Lestaurtinib] + CC(=O)c1c(C)c2cnc(Nc3ccc(N4CCNCC4)cn3)nc2n(C2CCCC2)c1=O [Palbociclib] (partner 0.5 µM)
Summary of the method: as §1

[3] = compound: C[C@]12O[C@H](C[C@]1(O)CO)n1c3ccccc3c3c4c(c5c6ccccc6n2c5c31)CNC4=O [Lestaurtinib] + CC(=O)Nc1cccc(-n2c(=O)n(C3CC3)c(=O)c3c(Nc4ccc(I)cc4F)n(C)c(=O)c(C)c32)c1 [Trametinib] (partner 0.02 µM)
Summary of the method: as §1

[4] = compound: C[C@]12O[C@H](C[C@]1(O)CO)n1c3ccccc3c3c4c(c5c6ccccc6n2c5c31)CNC4=O [Lestaurtinib] + C[C@@H](Oc1cc(-c2cnn(C3CCNCC3)c2)cnc1N)c1c(Cl)ccc(F)c1Cl [Crizotinib] (partner 1 µM)
Summary of the method: as §1

| Cell Line | relative viability ([1]; first compound 0.2 µM) | relative viability ([1]; first compound 0.6325 µM) | relative viability ([1]; first compound 2 µM) | relative viability ([1]; first compound 6.325 µM) | relative viability ([1]; first compound 20 µM) | relative viability ([2]; first compound 0.005 µM) | relative viability ([2]; first compound 0.01581 µM) | relative viability ([2]; first compound 0.05 µM) | relative viability ([2]; first compound 0.1581 µM) | relative viability ([2]; first compound 0.5 µM) | relative viability ([3]; first compound 0.005 µM) | relative viability ([3]; first compound 0.01581 µM) | relative viability ([3]; first compound 0.05 µM) | relative viability ([3]; first compound 0.1581 µM) | relative viability ([3]; first compound 0.5 µM) | relative viability ([4]; first compound 0.005 µM) | relative viability ([4]; first compound 0.01581 µM) | relative viability ([4]; first compound 0.05 µM) | relative viability ([4]; first compound 0.1581 µM) | relative viability ([4]; first compound 0.5 µM) |
| --- | --- | --- | --- | --- | --- | --- | --- | --- | --- | --- | --- | --- | --- | --- | --- | --- | --- | --- | --- | --- |
| NCI-H2170 | 0.301 | 0.255 | 0.282 | 0.232 | 0.283 | 0.325 | 0.379 | 0.275 | 0.394 | 0.218 | 0.896 | 0.864 | 0.609 | 0.764 | 0.31 | 1.05 | 1.06 | 0.68 | 0.924 | 0.292 |
| HCC-366 | 1.14 | 0.926 | 1.07 | 0.84 | 0.931 | 0.371 | 0.424 | 0.471 | 0.391 | 0.172 | 0.365 | 0.489 | 0.399 | 0.342 | 0.149 | 0.711 | 0.649 | 0.418 | 0.758 | 0.219 |
| NCI-H2347 | 1.03 | 0.977 | 0.901 | 0.898 | 0.915 | 0.433 | 0.438 | 0.535 | 0.48 | 0.501 | 0.288 | 0.305 | 0.299 | 0.278 | 0.301 | 0.715 | 0.854 | 0.71 | 0.585 | 0.545 |
| COR-L 105 | 0.355 | 0.37 | 0.38 | 0.304 | 0.361 | 0.434 | 0.425 | 0.376 | 0.419 | 0.348 | 0.408 | 0.419 | 0.446 | 0.347 | 0.341 | 0.703 | 1.02 | 0.684 | 0.618 | 0.233 |
| 201T | 1.01 | 1.01 | 1.14 | 0.979 | 1.05 | 0.398 | 0.45 | 0.364 | 0.405 | 0.399 | 0.744 | 0.758 | 0.76 | 0.837 | 0.721 | 1.09 | 1.03 | 1.08 | 1.08 | 0.903 |
| NCI-H2126 | 0.774 | 0.751 | 0.787 | 0.691 | 0.745 | 0.339 | 0.372 | 0.388 | 0.357 | 0.339 | 0.625 | 0.6 | 0.624 | 0.52 | 0.578 | 1.06 | 1.1 | 0.835 | 0.973 | 0.682 |
| LC-2-ad | 0.891 | 1.03 | 0.939 | 0.747 | 0.973 | 0.59 | 0.527 | 0.418 | 0.429 | 0.293 | 0.932 | 1.02 | 0.792 | 0.569 | 0.505 | 0.467 | 0.325 | 0.433 | 0.366 | 0.251 |
| NCI-H2085 | 0.876 | 0.768 | 0.876 | 0.692 | 0.701 | 0.445 | 0.489 | 0.471 | 0.463 | 0.475 | 0.476 | 0.514 | 0.558 | 0.652 | 0.46 | 0.904 | 0.856 | 0.748 | 0.884 | 0.692 |
| NCI-H358 | 0.435 | 0.482 | 0.475 | 0.459 | 0.424 | 0.132 | 0.131 | 0.14 | 0.111 | 0.108 | 0.139 | 0.119 | 0.157 | 0.103 | 0.0891 | 0.61 | 0.297 | 0.402 | 0.31 | 0.0912 |
| H3255 | 0.235 | 0.296 | 0.127 | 0.227 | 0.237 | 0.301 | 0.349 | 0.324 | 0.337 | 0.249 | 0.587 | 0.787 | 0.496 | 0.546 | 0.386 | 0.879 | 0.988 | 0.825 | 0.649 | 0.461 |
| NCI-H2228 | 1.22 | 1.12 | 1.14 | 0.939 | 1 | 1.03 | 1.05 | 0.407 | 0.28 | 0.275 | 0.589 | 0.575 | 0.452 | 0.322 | 0.156 | 0.512 | 0.442 | 0.415 | 0.21 | 0.255 |
| CAL-12T | 0.774 | 0.827 | 0.74 | 0.604 | 0.606 | 0.365 | 0.526 | 0.409 | 0.302 | 0.183 | 0.364 | 0.337 | 0.314 | 0.288 | 0.23 | 0.555 | 0.747 | 0.409 | 0.487 | 0.272 |
| A-427 | 1.09 | 1.01 | 1.01 | 1.02 | 0.982 | 0.506 | 0.554 | 0.521 | 0.444 | 0.207 | 0.783 | 0.807 | 0.729 | 0.344 | 0.203 | 0.999 | 0.842 | 0.501 | 0.411 | 0.125 |
